Consider three compounds from article PMC8308784, “Novel Purine Chemotypes with Activity against Plasmodium falciparum and Trypanosoma cruzi” (Pharmaceuticals, 2021).

In data set [1] the test system is T. cruzi Tulahuen strain expressing β-galactosidase. In words: T. cruzi primary screening at three fixed concentrations. The data set is classed as cell-based.
Data set [2] relates to T. cruzi intracellular amastigotes. In words: Antiamastigote growth inhibition assay. The settings on record: intracellular amastigotes in Vero cells, mean (SD), read-out: T. cruzi IC50 b (antiamastigote assay). The data set is classed as cell-based. As to the method: Vero cells were seeded in T-175 flasks (5 × 10^6 cells per flask) in DMEM supplemented with 1% penicillin–streptomycin and 10% FBS, and cultured for 24 h. Then, cells were washed once with PBS, and free-swimming trypomastigotes (1 × 10^7 trypomastigotes per flask; MOI = 1) in assay medium were added and allowed 18 h to infect. After that, infected cell monolayers were washed with PBS and detached. Cells were counted and diluted to a concentration of 5 × 10^5 cells per mL, before adding 100 µL per well to test plates already containing the drugs dispensed as described above. In all cases, we included BNZ as control drug, and each plate contained its own negative (Vero cells and parasites) and positive (Vero cells) controls.
(§1) Absorbance values derived from the anti-T. cruzi assays and fluorescence values from the anti-P. falciparum and cell toxicity assays were normalized to the controls. In the primary screening at three fixed doses, the compounds’ inhibitory activity was expressed as a percentage of the negative control (100% parasitic growth). In dose–response assays, the compounds’ IC50 and TC50 values were determined with GraphPad Prism 7 software (version 7.00, 2016), using a non-linear regression analysis model defined by the following equation: Y=100 ÷(1+10^((LogIC50−X)×HillSlope))

For the next data set, the system named is Vero cells. Briefly: Vero cell toxicity assay (alamarBlue). The data set is classed as cell-based, green monkey. The settings on record: 4 days; minimum value of the 95% CI, except BNZ (mean (SD)). The procedure: Human erythrocytes were purified from B+ Rh+ blood samples and maintained at 4 °C in incomplete RPMI medium. Vero (green monkey kidney epithelial cells), LLC-MK2 (Rhesus monkey kidney epithelial cells), and HepG2 (human liver epithelial cells) cultures were cultivated in DMEM supplemented with 1% penicillin–streptomycin (PS) and 10% heat-inactivated fetal bovine serum (FBS) at 37 °C, 5% CO2, and >95% humidity, as described in [31]. HepG2 cells were also supplemented with 10% non-essential amino acids. Vero and MK2 cells were passaged twice per week at 1:12 ratios, while HepG2 cells were passaged at a 1:8 ratio.
Vero and HepG2 cells were detached, centrifuged, and resuspended in DMEM without phenol red. Cell viability was checked upon cell counting with trypan blue staining. Then, Vero and HepG2 cells were diluted at a concentration of 5 × 10^5 and 3.2 × 10^5 cells per mL, respectively, before adding 100 µL per well to the 96-well plate. Each run contained its own negative (untreated cells) and positive (medium alone) controls. Plates were incubated at 37 °C for 4 days in the case of Vero, or 2 in the case of HepG2 cells. Assay readout was made by adding 50 µL per well of a PBS solution containing 10% alamarBlue reagent (Thermo Fisher Scientific); then, plates were incubated for another 6 h at 37 °C, before recording the fluorescence intensity with a Tecan Infinite M Nano+ reader (excitation: 530 nm, emission: 590 nm).
as §1

In data set [3] the test system is T. cruzi Tulahuen strain expressing β-galactosidase. Briefly: anti-T. cruzi dose-response growth inhibition assay (Vero cells plus trypomastigotes, CPRG readout). The data set is classed as cell-based. The settings on record: Vero cells plus trypomastigotes, MOI 1, four days, mean (SD), read-out: T. cruzi IC50 a (anti-T. cruzi assay).
[4] abbreviates: compound at 10 µM, average of at least three independent experiments.
The mark [5] stands for this setting: Trypanosoma cruzi, TULAHUEN, 96 h.

Where two headings read alike, the source gives them in different places.

Regarding `CC(C)(C)n1c(-c2ccccc2)nc2c(OCc3ccccc3)ncnc21` [Compound 6D], in data set [1] (setting [4]), the “Primary screening, growth inhibition values at 10 µM” value is given as 84.14. The IC50 is 3.78 µM in data set [2] (Trypanosoma cruzi) and 5.56 µM in data set [3] (setting [5]). For the same compound, the “Vero Cells TC50” value in the data set with Vero cells is on record as more than 150 µM.
As to `c1ccc(CCn2c(-c3ccccc3)nc3c(OCc4ccccc4)ncnc32)cc1` [Compound 6g], the “Primary screening, growth inhibition values at 10 µM” value in data set [1] (setting [4]) is reported as 87.76. Moreover, the IC50 in data set [2] was 19.6 µM; in data set [3], 3.97 µM. Further, in the data set with Vero cells, the “Vero Cells TC50” value is more than 150 µM.
Regarding `COC(=O)c1ccccc1-n1cc(COc2ncnc3c2nc(-c2ccccc2)n3N(C)C)nn1` [Compound 34], in data set [1] (Trypanosoma cruzi, TULAHUEN, read-out: Primary screening, growth inhibition values at 100 µM), the activity at 100 µM turned out to be 13.9%. Besides, in data set [1] (Trypanosoma cruzi, TULAHUEN, compound at 1 µM, average of at least three independent experiments, read-out: Primary screening, growth inhibition values at 1 µM), the activity at 1 µM worked out at 68%. Also, the activity at 10 µM in data set [1] (Trypanosoma cruzi, TULAHUEN, compound at 10 µM, average of at least three independent experiments, read-out: Primary screening, growth inhibition values at 10 µM) was determined as 66.9%. For the same compound, the half-inhibitory concentration (IC50) in data set [2] (Trypanosoma cruzi) amounted to 4.24 µM; in data set [3] (setting [5]) it was 4.12 µM. For the same compound, the “Vero Cells TC50” value in the data set on Vero cells is more than 6000 µM.

For orientation: IC50 means the point on the concentration scale where inhibition reaches its midpoint.
